The values below come from patent US8637505B2, “Cyclic inhibitors of 11beta-hydroxysteroid dehydrogenase 1” (Boehringer Ingelheim International GmbH, priority 2009, dated 2014).

For one test, the target named is T1, 11β-HSD1 (Homo sapiens, UniProt P28845).
T1 construct: detecting cortisol generated from cortisterone by human liver microsomes; from tissue; host or cells: human liver microsomes
T1 sequence (P28845 whole entry): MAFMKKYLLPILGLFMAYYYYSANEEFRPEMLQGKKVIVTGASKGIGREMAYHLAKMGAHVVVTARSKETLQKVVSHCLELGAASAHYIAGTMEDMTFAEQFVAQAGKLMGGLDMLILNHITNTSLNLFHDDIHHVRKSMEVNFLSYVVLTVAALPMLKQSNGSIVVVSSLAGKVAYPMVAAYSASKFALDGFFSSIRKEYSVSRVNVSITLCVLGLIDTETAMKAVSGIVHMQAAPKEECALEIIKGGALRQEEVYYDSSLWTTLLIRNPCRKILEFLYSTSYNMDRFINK
In words: In vitro inhibition of 11β-HSD1, HTRF detection of cortisol generated by human liver microsomes. It counts as biochemical. The following applies: at 100 nM; 100% indicates no inhibition, zero or below zero indicates complete inhibition; Biological Test Example B. As to the method:
The ratio of the two emission signals is then calculated (Em665*10000/Em615).
In the case of “(S)-6-(2-Hydroxy-2-methyl-propyl)-6-phenyl-3-{(S)-1-[4′-(alkoxy)-biphenyl-4-yl]-ethyl}-[1,3]oxazinan-2-one [Example B1]”, the “Average % control inhibition at 100 nM” value is listed as 0%.

Staying with this test, now noted: at 100 nM; 100% indicates no inhibition, zero or below zero indicates complete inhibition; Biological Test Example B; read-out: Average % control inhibition at 100 nM.
`COC(=O)COc1ccc(-c2ccc([C@H](C)N3CC[C@](CC(C)(C)O)(c4ccccc4)OC3=O)cc2)cc1` [Example B2, (4′-{(S)-1-[(S)-6-(2-Hydroxy-2-methyl-propyl)-2-oxo-6-phenyl-[1,3]oxazinan-3-yl]-ethyl}-biphenyl-4-yloxy)-acetic acid methyl ester]: the remaining activity at 0.1 µM stood at 18%.

The same test, now with this note: at 100 nM; 100% indicates no inhibition, zero or below zero indicates complete inhibition; Biological Test Example C; read-out: Average % control inhibition at 100 nM.
`C[C@@H](c1ccc(C2CCOC2)cc1)N1CC[C@](CC(C)(C)O)(c2ccccc2)OC1=O` (stereo partly drawn) [Example C4, (S)-6-(2-Hydroxy-2-methyl-propyl)-6-phenyl-3-{(S)-1-[4-(tetrahydro-furan-3-yl)-phenyl]-ethyl}-[1,3]oxazinan-2-one]: the remaining activity at 0.1 µM came to 30%.

Turning to `C[C@@H](c1ccc(-c2nnc(C(F)(F)F)s2)cc1)N1CC[C@](CC(C)(C)O)(c2ccccc2)OC1=O` [Example C2, (S)-6-(2-Hydroxy-2-methyl-propyl)-6-phenyl-3-{(S)-1-[4-(5-trifluoromethyl-[1,3,4]thiadiazol-2-yl)-phenyl]-ethyl}-[1,3]oxazinan-2-one], the remaining activity at 0.1 µM was 60%.

The same test, now with this note: at 100 nM; 100% indicates no inhibition, zero or below zero indicates complete inhibition; Biological Test Example D; read-out: Average % control inhibition at 100 nM.
On to `C[C@@H](c1ccc(-c2ccc(OCCO)cc2)cc1)N1CC[C@](CC(C)(C)O)(c2ccccc2)OC1=O` [Example D6, 3-{(S)-1-[4′-(2-Hydroxy-ethoxy)-biphenyl-4-yl]-ethyl}-(S)-6-(2-hydroxy-2-methyl-propyl)-6-phenyl-[1,3]oxazinan-2-one], for which the remaining activity at 0.1 µM was -12%.

With `C[C@@H](c1ccc(-c2ccc(OCC(C)(C)O)cc2)cc1)N1CC[C@](CC(C)(C)O)(c2ccccc2)OC1=O` [Example D7, 3-{(S)-1-[4′-(2-Hydroxy-2-methyl-propoxy)-biphenyl-4-yl]-ethyl}-(S)-6-(2-hydroxy-2-methyl-propyl)-6-phenyl-[1,3]oxazinan-2-one], the remaining activity at 0.1 µM came to 3%.

Still in this test, the particulars now being: at 100 nM; 100% indicates no inhibition, zero or below zero indicates complete inhibition; Biological Test Example E.
Take “(S)-6-(2-Hydroxy-2-methyl-propyl)-6-phenyl-3-((S)-1-{4-[2-(alkoxy)-pyridin-4-yl]-phenyl}-ethyl)-[1,3]oxazinan-2-one [Example E1]”: the “Average % control inhibition at 100 nM” value was determined as 25%.

The same test, now with this note: read-out: Average % control inhibition at 100 nM.
Take `Cc1nnc(-c2ccc([C@H](C)N3CC[C@](CC(C)(C)O)(c4ccccc4)OC3=O)cc2)o1` [Example 3, (S)-6-(2-hydroxy-2-methyl-propyl)-3-{(S)-1-[4-(5-methyl-[1,3,4]oxadiazol-2-yl)-phenyl]-ethyl}-6-phenyl-[1,3]oxazinan-2-one]: the remaining activity at 0.1 µM is 38%.

With `Cc1nnc(-c2ccc([C@H](C)N3CC[C@](CC(C)(C)O)(c4ccccc4)OC3=O)cc2)n1C` [Example 2, 3-{(S)-1-[4-(4,5-Dimethyl-4H-[1,2,4]triazol-3-yl)-phenyl]-ethyl}-(S)-6-(2-hydroxy-2-methyl-propyl)-6-phenyl-[1,3]oxazinan-2-one], the remaining activity at 0.1 µM came to 95%.

Consider `C[C@@H](c1ccc(-c2ccoc2)cc1)N1CC[C@](CC(C)(C)O)(c2ccccc2)OC1=O` [Example 20, 3-[(S)-1-(4-Furan-3-yl-phenyl)-ethyl]-(S)-6-(2-hydroxy-2-methyl-propyl)-6-phenyl-[1,3]oxazinan-2-one], for which the remaining activity at 0.1 µM was 10%.

On to `C[C@@H](c1ccc(-c2nnco2)cc1)N1CC[C@](CC(C)(C)O)(c2ccccc2)OC1=O` [Example 5, (S)-6-(2-Hydroxy-2-methyl-propyl)-3-[(S)-1-(4-[1,3,4]oxadiazol-2-yl-phenyl)-ethyl]-6-phenyl-[1,3]oxazinan-2-one], for which the remaining activity at 0.1 µM was 48%.

For the molecule `C[C@@H](c1ccc(-c2ccsc2)cc1)N1CC[C@](CC(C)(C)O)(c2ccccc2)OC1=O` [Example 11, (S)-6-(2-Hydroxy-2-methyl-propyl)-6-phenyl-3-[(S)-1-(4-thiophen-3-yl-phenyl)-ethyl]-[1,3]oxazinan-2-one], the remaining activity at 0.1 µM was found to be 13%.

On to `C[C@@H](c1ccc(-c2ccco2)cc1)N1CC[C@](CC(C)(C)O)(c2ccccc2)OC1=O` [Example 13, 3-[(S)-1-(4-Furan-2-yl-phenyl)-ethyl]-(S)-6-(2-hydroxy-2-methyl-propyl)-6-phenyl-[1,3]oxazinan-2-one], for which the remaining activity at 0.1 µM is -2%.

Turning to `C[C@@H](c1ccc(-c2ncon2)cc1)N1CC[C@](CC(C)(C)O)(c2ccccc2)OC1=O` [Example 7, (S)-6-(2-Hydroxy-2-methyl-propyl)-3-[(S)-1-(4-[1,2,4]oxadiazol-3-yl-phenyl)-ethyl]-6-phenyl-[1,3]oxazinan-2-one], the remaining activity at 0.1 µM turned out to be 50%.

For the molecule `Cc1nnc(-c2ccc([C@H](C)N3CC[C@](CC(C)C)(c4ccccc4)OC3=O)cc2)o1` (stereo in doubt) [Example 1, (S)-6-Isobutyl-3-{1-[4-(5-methyl-[1,3,4]oxadiazol-2-yl)-phenyl]-ethyl}-6-phenyl-[1,3]oxazinan-2-one], the remaining activity at 0.1 µM worked out at 2%.

In the case of `C[C@@H](c1ccc(C(N)=O)cc1)N1CC[C@](CC(C)(C)O)(c2ccccc2)OC1=O` [Example 8, 4-{(S)-1-[(S)-6-(2-Hydroxy-2-methyl-propyl)-2-oxo-6-phenyl-[1,3]oxazinan-3-yl]-ethyl}-benzamide], the remaining activity at 0.1 µM was determined as 92%.

Regarding `C[C@@H](c1ccc(-c2nc3c(=O)n(C)c(=O)n(C)c3n2C)cc1)N1CC[C@](CC(C)(C)O)(c2ccccc2)OC1=O` [Example 12, 8-(4-{(S)-1-[(S)-6-(2-Hydroxy-2-methyl-propyl)-2-oxo-6-phenyl-[1,3]oxazinan-3-yl]-ethyl}-phenyl)-1,3,9-trimethyl-3,9-dihydro-purine-2,6-dione], the remaining activity at 0.1 µM was found to be 98%.

Turning to `Cc1nc(-c2ccc([C@H](C)N3CC[C@](CC(C)(C)O)(c4ccccc4)OC3=O)cc2)no1` [Example 6, (S)-6-(2-Hydroxy-2-methyl-propyl)-3-{(S)-1-[4-(5-methyl-[1,2,4]oxadiazol-3-yl)-phenyl]-ethyl}-6-phenyl-[1,3]oxazinan-2-one], the remaining activity at 0.1 µM was found to be 40%.

`Cc1noc(C)c1-c1ccc([C@H](C)N2CC[C@](CC(C)(C)O)(c3ccccc3)OC2=O)cc1` [Example 10, 3-{(S)-1-[4-(3,5-Dimethyl-isoxazol-4-yl)-phenyl]-ethyl}-(S)-6-(2-hydroxy-2-methyl-propyl)-6-phenyl-[1,3]oxazinan-2-one]: the remaining activity at 0.1 µM came to 20%.
